Reference: publication PMC10004634 (PLOS ONE, 2023)
Read-outs that look alike come from different tables or passages of the source.

Experiments:
Test in all cases: biochemical
Design in all cases: KINOMEscan scanMAX competition binding, DNA-tagged kinases, qPCR read-out, percent control at 300 nM
[1] = target: T1, AURKA (Homo sapiens, UniProt O14965)
T1 sequence (O14965 1-403): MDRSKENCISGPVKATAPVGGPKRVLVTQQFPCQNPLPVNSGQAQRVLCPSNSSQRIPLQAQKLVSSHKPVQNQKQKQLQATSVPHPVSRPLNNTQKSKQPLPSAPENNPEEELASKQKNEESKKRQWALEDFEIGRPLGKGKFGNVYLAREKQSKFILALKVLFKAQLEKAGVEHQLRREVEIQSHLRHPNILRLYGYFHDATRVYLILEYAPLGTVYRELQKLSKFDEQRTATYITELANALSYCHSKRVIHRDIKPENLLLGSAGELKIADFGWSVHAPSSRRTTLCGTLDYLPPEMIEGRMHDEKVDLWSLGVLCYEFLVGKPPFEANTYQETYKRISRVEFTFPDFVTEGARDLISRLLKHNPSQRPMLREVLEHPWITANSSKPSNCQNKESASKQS

[2] = target: T2, EPHB6 (Homo sapiens, UniProt O15197)
T2 sequence (O15197 1-1021): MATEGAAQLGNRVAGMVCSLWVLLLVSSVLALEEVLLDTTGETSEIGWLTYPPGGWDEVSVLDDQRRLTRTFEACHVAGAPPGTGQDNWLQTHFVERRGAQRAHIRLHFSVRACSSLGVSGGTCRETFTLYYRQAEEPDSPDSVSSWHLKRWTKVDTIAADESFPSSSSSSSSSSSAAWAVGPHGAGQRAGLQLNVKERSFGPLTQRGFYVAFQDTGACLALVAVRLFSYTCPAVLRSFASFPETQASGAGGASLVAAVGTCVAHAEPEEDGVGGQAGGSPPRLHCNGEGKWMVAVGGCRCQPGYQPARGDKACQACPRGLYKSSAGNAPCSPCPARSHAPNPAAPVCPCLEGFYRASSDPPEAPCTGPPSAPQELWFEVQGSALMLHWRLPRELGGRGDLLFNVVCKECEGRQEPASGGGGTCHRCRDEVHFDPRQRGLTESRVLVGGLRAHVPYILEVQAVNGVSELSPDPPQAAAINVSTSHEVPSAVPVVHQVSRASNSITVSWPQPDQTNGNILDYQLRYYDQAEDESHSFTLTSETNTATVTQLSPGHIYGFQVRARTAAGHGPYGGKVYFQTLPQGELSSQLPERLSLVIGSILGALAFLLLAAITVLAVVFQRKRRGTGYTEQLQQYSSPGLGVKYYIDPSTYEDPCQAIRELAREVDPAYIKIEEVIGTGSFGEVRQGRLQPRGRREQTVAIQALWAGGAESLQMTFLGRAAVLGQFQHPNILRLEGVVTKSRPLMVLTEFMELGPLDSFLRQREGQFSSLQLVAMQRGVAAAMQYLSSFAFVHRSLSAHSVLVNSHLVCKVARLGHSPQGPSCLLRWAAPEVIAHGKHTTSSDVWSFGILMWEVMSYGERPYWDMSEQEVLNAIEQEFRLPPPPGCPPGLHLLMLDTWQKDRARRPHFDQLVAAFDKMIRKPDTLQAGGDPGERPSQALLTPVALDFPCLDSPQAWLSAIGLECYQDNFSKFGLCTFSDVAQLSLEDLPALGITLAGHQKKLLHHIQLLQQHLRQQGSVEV

[3] = target: FLT4 (Homo sapiens, UniProt P35916)
Chain of FLT4 (P35916 whole entry): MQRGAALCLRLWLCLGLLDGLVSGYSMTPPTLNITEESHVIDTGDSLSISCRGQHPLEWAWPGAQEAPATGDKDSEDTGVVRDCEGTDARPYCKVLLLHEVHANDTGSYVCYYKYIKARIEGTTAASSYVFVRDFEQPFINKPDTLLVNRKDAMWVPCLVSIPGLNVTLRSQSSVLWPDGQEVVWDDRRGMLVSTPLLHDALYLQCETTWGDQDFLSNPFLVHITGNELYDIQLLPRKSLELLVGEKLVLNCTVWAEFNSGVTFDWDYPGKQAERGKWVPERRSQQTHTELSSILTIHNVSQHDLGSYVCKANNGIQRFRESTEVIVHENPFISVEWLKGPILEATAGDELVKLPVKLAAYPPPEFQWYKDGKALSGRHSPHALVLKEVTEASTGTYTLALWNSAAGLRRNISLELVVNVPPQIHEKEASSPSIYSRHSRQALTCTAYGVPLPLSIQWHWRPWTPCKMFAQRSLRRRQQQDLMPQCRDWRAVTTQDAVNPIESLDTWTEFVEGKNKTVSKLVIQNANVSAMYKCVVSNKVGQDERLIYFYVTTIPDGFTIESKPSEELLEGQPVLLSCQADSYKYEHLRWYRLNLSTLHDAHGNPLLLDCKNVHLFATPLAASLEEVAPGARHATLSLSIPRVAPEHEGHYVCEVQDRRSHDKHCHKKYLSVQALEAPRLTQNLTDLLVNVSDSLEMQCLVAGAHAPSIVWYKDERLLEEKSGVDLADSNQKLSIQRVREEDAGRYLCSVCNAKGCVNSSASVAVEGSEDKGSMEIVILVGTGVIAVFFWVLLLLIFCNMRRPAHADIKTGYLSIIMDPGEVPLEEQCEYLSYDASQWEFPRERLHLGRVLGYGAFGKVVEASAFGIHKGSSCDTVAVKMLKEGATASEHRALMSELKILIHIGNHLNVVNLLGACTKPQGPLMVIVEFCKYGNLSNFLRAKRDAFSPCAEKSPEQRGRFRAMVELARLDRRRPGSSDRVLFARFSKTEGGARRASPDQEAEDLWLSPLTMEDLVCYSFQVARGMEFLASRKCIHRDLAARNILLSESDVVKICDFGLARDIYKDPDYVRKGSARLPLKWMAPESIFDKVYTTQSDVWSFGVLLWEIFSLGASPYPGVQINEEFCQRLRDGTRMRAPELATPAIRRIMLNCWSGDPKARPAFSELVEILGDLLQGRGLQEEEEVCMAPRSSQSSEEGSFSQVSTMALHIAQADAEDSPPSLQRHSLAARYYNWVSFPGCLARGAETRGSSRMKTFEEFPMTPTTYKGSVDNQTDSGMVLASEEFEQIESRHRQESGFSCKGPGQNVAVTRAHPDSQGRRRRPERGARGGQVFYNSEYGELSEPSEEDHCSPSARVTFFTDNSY

[4] = target: GRK4 (Homo sapiens, UniProt P32298)
Chain of GRK4 (P32298 whole entry): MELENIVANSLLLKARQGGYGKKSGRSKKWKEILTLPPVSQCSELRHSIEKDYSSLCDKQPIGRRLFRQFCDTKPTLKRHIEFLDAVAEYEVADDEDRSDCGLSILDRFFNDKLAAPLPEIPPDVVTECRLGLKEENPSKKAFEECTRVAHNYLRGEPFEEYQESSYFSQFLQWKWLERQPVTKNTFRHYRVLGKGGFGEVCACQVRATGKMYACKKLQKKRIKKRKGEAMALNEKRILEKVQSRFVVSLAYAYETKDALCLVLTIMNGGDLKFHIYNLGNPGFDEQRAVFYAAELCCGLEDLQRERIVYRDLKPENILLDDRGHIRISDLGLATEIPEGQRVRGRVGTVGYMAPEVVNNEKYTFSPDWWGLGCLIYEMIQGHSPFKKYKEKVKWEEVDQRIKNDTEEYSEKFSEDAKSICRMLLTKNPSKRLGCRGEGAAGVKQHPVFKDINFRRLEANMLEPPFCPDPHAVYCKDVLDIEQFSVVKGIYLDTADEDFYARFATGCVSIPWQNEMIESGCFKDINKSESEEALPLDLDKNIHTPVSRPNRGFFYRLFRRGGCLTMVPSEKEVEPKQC

[5] = target: PRKCH (Homo sapiens, UniProt P24723)
Chain of PRKCH (P24723 whole entry): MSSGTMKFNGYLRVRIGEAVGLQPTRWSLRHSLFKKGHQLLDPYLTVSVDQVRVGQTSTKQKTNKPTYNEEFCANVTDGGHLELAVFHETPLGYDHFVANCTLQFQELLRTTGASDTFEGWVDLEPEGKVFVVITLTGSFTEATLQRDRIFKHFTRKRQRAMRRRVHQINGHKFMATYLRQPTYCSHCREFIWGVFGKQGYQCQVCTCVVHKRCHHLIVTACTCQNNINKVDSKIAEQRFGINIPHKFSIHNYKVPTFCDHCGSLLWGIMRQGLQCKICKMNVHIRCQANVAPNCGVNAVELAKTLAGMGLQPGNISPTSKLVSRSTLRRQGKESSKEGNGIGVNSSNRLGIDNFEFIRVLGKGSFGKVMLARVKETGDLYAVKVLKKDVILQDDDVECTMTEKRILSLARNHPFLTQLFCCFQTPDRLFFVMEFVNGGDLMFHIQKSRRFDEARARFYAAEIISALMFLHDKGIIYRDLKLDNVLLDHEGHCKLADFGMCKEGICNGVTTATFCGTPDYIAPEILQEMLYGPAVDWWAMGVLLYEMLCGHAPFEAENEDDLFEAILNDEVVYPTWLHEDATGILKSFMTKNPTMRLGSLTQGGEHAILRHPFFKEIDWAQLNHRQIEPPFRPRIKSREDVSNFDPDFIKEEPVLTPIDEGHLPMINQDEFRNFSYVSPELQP

[6] = target: WEE1 (Homo sapiens, UniProt P30291)
Chain of WEE1 (P30291 whole entry): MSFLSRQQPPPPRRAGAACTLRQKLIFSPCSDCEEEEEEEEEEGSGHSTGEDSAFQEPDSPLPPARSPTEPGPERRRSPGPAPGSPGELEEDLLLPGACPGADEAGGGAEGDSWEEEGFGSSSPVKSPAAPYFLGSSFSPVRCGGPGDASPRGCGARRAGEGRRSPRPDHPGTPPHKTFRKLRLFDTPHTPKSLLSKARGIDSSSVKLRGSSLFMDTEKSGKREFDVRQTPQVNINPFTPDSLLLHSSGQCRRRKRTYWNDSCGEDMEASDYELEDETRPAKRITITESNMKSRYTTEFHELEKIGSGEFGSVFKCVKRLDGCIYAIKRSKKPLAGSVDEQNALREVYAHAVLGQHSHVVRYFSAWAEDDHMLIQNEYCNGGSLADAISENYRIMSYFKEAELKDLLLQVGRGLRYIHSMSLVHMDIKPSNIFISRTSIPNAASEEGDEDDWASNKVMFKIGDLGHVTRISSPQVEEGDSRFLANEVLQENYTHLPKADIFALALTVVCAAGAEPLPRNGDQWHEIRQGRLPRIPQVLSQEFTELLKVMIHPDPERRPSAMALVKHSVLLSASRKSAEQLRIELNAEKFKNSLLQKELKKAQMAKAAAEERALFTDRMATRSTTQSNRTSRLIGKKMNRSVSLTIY

[7] = target: T3, MAP4K2 (Homo sapiens, UniProt Q12851)
T3 sequence (Q12851 1-820): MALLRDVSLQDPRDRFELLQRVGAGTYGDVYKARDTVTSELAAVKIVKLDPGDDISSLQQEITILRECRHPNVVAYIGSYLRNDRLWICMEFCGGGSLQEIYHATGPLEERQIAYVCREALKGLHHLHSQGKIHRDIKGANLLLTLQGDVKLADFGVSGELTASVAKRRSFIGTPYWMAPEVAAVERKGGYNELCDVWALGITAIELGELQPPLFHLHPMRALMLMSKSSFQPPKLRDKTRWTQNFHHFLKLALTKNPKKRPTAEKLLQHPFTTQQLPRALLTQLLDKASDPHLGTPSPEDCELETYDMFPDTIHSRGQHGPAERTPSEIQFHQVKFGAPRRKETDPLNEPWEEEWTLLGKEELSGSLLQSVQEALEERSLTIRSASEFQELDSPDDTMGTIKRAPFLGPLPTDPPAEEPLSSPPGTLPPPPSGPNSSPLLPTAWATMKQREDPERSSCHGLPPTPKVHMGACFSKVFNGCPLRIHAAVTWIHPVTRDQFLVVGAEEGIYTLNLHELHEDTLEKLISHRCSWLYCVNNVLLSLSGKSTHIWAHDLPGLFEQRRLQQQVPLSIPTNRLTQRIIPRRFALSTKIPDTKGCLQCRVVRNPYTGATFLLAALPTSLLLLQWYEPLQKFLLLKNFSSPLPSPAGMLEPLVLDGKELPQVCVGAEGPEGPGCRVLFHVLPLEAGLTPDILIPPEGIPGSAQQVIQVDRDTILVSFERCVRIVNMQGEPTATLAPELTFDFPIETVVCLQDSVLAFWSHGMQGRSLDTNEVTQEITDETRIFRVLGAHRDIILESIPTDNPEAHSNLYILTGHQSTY

[8] = read-out: Percent control / Acalabrutinib
[9] = read-out: Percent control / Ibrutinib
[10] = read-out: Percent control / Tirabrutinib
[11] = read-out: Percent control / Zanubrutinib

CC#CC(=O)N1CCC[C@H]1c1nc(-c2ccc(C(=O)Nc3ccccn3)cc2)c2c(N)nccn12 [Acalabrutinib]
remaining binding at 0.3 µM [1, 8]: 96% | remaining binding at 0.3 µM [2, 8]: 85% | remaining binding at 0.3 µM [3, 8]: 96% | remaining binding at 0.3 µM [4, 8]: 89% | remaining binding at 0.3 µM [5, 8]: 94% | remaining binding at 0.3 µM [6, 8]: 80%

C=CC(=O)N1CCC[C@@H](n2nc(-c3ccc(Oc4ccccc4)cc3)c3c(N)ncnc32)C1 [Ibrutinib]
remaining binding at 0.3 µM [1, 9]: 94% | remaining binding at 0.3 µM [2, 9]: 46% | remaining binding at 0.3 µM [3, 9]: 57% | remaining binding at 0.3 µM [7, 9]: 68% | remaining binding at 0.3 µM [5, 9]: 90% | remaining binding at 0.3 µM [6, 9]: 89%

CC#CC(=O)N1CC[C@@H](n2c(=O)n(-c3ccc(Oc4ccccc4)cc3)c3c(N)ncnc32)C1 [Tirabrutinib]
remaining binding at 0.3 µM [2, 10]: 70% | remaining binding at 0.3 µM [3, 10]: 99% | remaining binding at 0.3 µM [4, 10]: 74% | remaining binding at 0.3 µM [7, 10]: 80% | remaining binding at 0.3 µM [5, 10]: 91% | remaining binding at 0.3 µM [6, 10]: 93%

C=CC(=O)N1CCC([C@@H]2CCNc3c(C(N)=O)c(-c4ccc(Oc5ccccc5)cc4)nn32)CC1 [Zanubrutinib]
remaining binding at 0.3 µM [1, 11]: 92% | remaining binding at 0.3 µM [2, 11]: 96% | remaining binding at 0.3 µM [3, 11]: 100% | remaining binding at 0.3 µM [4, 11]: 85% | remaining binding at 0.3 µM [7, 11]: 43% | remaining binding at 0.3 µM [5, 11]: 97% | remaining binding at 0.3 µM [6, 11]: 100%
